# Reference: patent US20100144712A1 (priority 2007, published 2010)
# Where two headings read alike, the source gives them in different places.
# What was measured:
# Type in all cases: cell-based
# [1] = tested on: Aspergillus fumigatus (ATCC 16424); assay: In vitro antifungal activity (MIC80), Aspergillus fumigatus ATCC 16424; details: Aspergillus fumigatus, read-out: Minimal inhibitory concentration (MIC80)
# In short: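 Broth dilution in RPMI 1640 with 2% (v/v) final DMSO; A. fumigatus inoculum from Malt Extract Agar subculture diluted 1000-fold to 0.4×10^2˜5×10^4 CFU/ml, alamarblue added, repeated 2 times. MIC80 is lowest concentration reducing growth 80% versus untreated control.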
# [2] = tested on: Candida albican ATCC 90873; assay: In vitro antifungal activity (MIC80), Candida albican ATCC 90873; details: Candida, ATCC90873; Table 2, ATCC 90873; read-out: Minimal inhibitory concentration (MIC80)
# In short: (§1)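 MIC80 is the lowest concentration that cuts growth by 80% compared with untreated cells, with alamarBlue as the growth read-out. Compounds were serially diluted in RPMI 1640 (0.25–256 […]; DMSO 2% v/v final) and added to 1.0×10^3–5.0×10^3 CFU/ml yeast suspensions, in duplicate runs.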
# [3] = tested on: Candida albican ATCC 96901; assay: In vitro antifungal activity (MIC80), Candida albican ATCC 96901; details: Candida, ATCC96901; Table 2, ATCC 96901; read-out: Minimal inhibitory concentration (MIC80)
# In short: as §1
# [4] = tested on: Candida albican ATCC MYA-1003; assay: In vitro antifungal activity (MIC80), Candida albican ATCC MYA-1003; details: Candida; Table 2, MYA 1003; read-out: Minimal inhibitory concentration (MIC80)
# In short: as §1
# [5] = tested on: Candida albican ATCC 62342; assay: In vitro antifungal activity (MIC80), Candida albican ATCC 62342; details: Candida, ATCC62342; Table 2, 62342; read-out: Minimal inhibitory concentration (MIC80)
# In short: as §1
# [6] = tested on: Candida albican ATCC 64124; assay: In vitro antifungal activity (MIC80), Candida albican ATCC 64124; details: Candida, ATCC64124; Table 2, 64124; read-out: Minimal inhibitory concentration (MIC80)
# In short: as §1
# [7] = tested on: Candida albican ATCC 64550; assay: In vitro antifungal activity (MIC80), Candida albican ATCC 64550; details: Candida, ATCC64550; Table 2, 64550; read-out: Minimal inhibitory concentration (MIC80)
# In short: as §1
# [8] = tested on: Candida albican ATCC MYA-573; assay: In vitro antifungal activity (MIC80), Candida albican ATCC MYA-573; details: Candida; Table 2, MYA 573; read-out: Minimal inhibitory concentration (MIC80)
# In short: as §1
# [9] = tested on: Candida albican ATCC MYA-574; assay: In vitro antifungal activity (MIC80), Candida albican ATCC MYA-574; details: Candida; Table 2, MYA 574; read-out: Minimal inhibitory concentration (MIC80)
# In short: as §1
# [10] = tested on: Candida albican ATCC MYA-575; assay: In vitro antifungal activity (MIC80), Candida albican ATCC MYA-575; details: Candida; Table 2, MYA 575; read-out: Minimal inhibitory concentration (MIC80)
# In short: as §1
# [11] = tested on: Candida albican ATCC MYA-576; assay: In vitro antifungal activity (MIC80), Candida albican ATCC MYA-576; details: Candida; Table 2, MYA 576; read-out: Minimal inhibitory concentration (MIC80)
# In short: as §1
# [12] = tested on: Aspergillus fumigatus MYA-1163; assay: In vitro antifungal activity (MIC80), Aspergillus fumigatus MYA-1163; details: Aspergillus fumigatus, MYA1163; Table 3, MYA-1163; read-out: Minimal inhibitory concentration (MIC80)
# Method: (§2) In vitro antifungal activities of the inventive antifungal compounds were evaluated using test strains including Candida albican (ATCC 90873, 204276, 62342, 64124, 64550, 96901, MYA-573, MYA-574, MYA-575, MYA-576, MYA-1003) and Aspergillus fumigatus (ATCC 16424). Test samples and positive control samples were prepared by dissolving the inventive compounds and comparative compounds, i.e., amphotericin B, fluconazole and itraconazole, in DMSO, respectively, and each successively diluted with medium to obtain test and positive control solutions having test compound concentrations of 0.125 μg/ml to a maximum concentration not generating turbidity. Minimal inhibitory concentration (MIC80) of each compound was determined as the lowest concentration of the test compounds required to reduce growth by 80% relative to a control strain not treated.
# (§3) 3) Preparation of test samples: the inventive compounds and comparative compounds were each diluted with DMSO to obtain 1 to 2 ml of a test sample in a concentration of 100-folds of the determining maximum concentration (256 μg/ml).
# (§4) The test samples were each successively diluted with RPMI 1640 to obtain test solutions having concentrations of […] in a 12×75 mm sterilized disposable culture tube. The final concentration of DMSO was adjusted to […] (v/v).
# (§5) Candida albican strains were each subcultured in Sabourad Dextrose Agar, YM Agar or Potato Dextrose Agar medium at 35° C. for 2˜3 days. In the case of yeasts, a single colony was taken from prominent colonies and suspended in 0.85% sterile physiological saline solution and the turbidity of the suspension was adjusted to 80˜82% at 530 nm, and then diluted 50-fold with RPMI 1640 medium to 1.0×10^3˜5.0×10^3 CFU/ml. The turbidity of fungi was adjusted to 80˜82% and the suspension was diluted 50-fold to […]. Aspergillus fumigatus strains were subcultured in Malt Extract Agar for 7˜10 days, and a single colony was taken from prominent colonies and suspended in 0.85% sterile physiological saline solution and the suspension was adjusted to 0.108 at 530 nm, and then diluted 1000-fold with RPMI 1640 medium to 0.4×10^2˜5×10^4 CFU/ml. The turbidity of fungi was adjusted to 80˜82% and the suspension was diluted 50-fold to 0.4102˜0.5104 CFU/ml.
# (§6) The strain solutions thus obtained were each seeded into a sterilized 96-well microplate, 0.1 ml of each test solution were added thereto, and […] of alamarblue was treated to each well (Biosource, #DAL1100). This procedure was repeated 2 times.
# (§7) Minimal inhibitory concentration (MIC80) of each compound was determined as the lowest concentration of the test compounds required to reduce growth by 80% relative to a control strain not treated.
# (§8) MIC80 of each of the compounds of which antifungal activities can be confirmed by Table 2 was determined using other test strains, i.e., Aspergillus fumigatus ATCC 16424 and MYA-1163, Aspergillus terreus ATCC 28301, Aspergillus flavus ATCC MYA-1004, and Aspergillus niger ATCC 9142.
# [13] = tested on: Aspergillus flavus ATCC MYA-1004; assay: In vitro antifungal activity (MIC80), Aspergillus flavus ATCC MYA-1004; details: Aspergillus flavus; Table 3, MYA-1004; read-out: Minimal inhibitory concentration (MIC80)
# Method: as §2, §3, §4, §5, §6, §7, §8
# [14] = tested on: Aspergillus terreus ATCC 28301; assay: In vitro antifungal activity (MIC80), Aspergillus terreus ATCC 28301; details: Aspergillus terreus, ATCC28301; Table 3, ATCC 28301; read-out: Minimal inhibitory concentration (MIC80)
# Method: as §2, §3, §4, §5, §6, §7, §8
# [15] = tested on: Aspergillus niger ATCC 9142; assay: In vitro antifungal activity (MIC80), Aspergillus niger ATCC 9142; details: Aspergillus niger, ATCC9142; Table 3, ATCC 9142; read-out: Minimal inhibitory concentration (MIC80)
# Method: as §2, §3, §4, §5, §6, §7, §8
"MIC80 ([1]; ATCC16424, Table 2, ATCC 16424)","MIC80 ([1]; ATCC16424, Table 3, ATCC 16424)",MIC80 [2],MIC80 [3],MIC80 [4],MIC80 [5],MIC80 [6],MIC80 [7],MIC80 [8],MIC80 [9],MIC80 [10],MIC80 [11],MIC80 [12],MIC80 [13],MIC80 [14],MIC80 [15],SMILES
> 128 µg/mL,> 128 µg/mL,4 µg/mL,> 128 µg/mL,> 128 µg/mL,8 µg/mL,> 128 µg/mL,32 µg/mL,> 128 µg/mL,> 128 µg/mL,16 µg/mL,64 µg/mL,> 128 µg/mL,> 128 µg/mL,> 128 µg/mL,> 128 µg/mL,"OC(Cn1cncn1)(Cn1cncn1)c1ccc(F)cc1F [F, fluconazole, reference compound]"
0.25 µg/mL,0.125 µg/mL,0.125 µg/mL,> 128 µg/mL,> 128 µg/mL,0.25 µg/mL,> 128 µg/mL,0.5 µg/mL,0.5 µg/mL,> 128 µg/mL,0.125 µg/mL,0.125 µg/mL,0.5 µg/mL,0.25 µg/mL,0.25 µg/mL,1 µg/mL,"CCC(C)n1ncn(-c2ccc(N3CCN(c4ccc(OCC5COC(Cn6cncn6)(c6ccc(Cl)cc6Cl)O5)cc4)CC3)cc2)c1=O (centres unmarked) [I, itraconazole, reference compound]"
